Test results published in patent US20170049843A1, “Hepatocyte Growth Factor Mimics as Therapeutic Agents” (WASHINGTON STATE UNIVERSITY, priority 2011, published 2017).
Where a SMILES comes first, the peptide text is derived from it. [ ]: non-standard residue; d: D form. The star is where a group is joined. Nle = CCCC[C@H](N)C(=O)O; Hexanoyl = CCCCCC(=O)*; Ahx = NCCCCCC(=O)O

Key:
hippocampal neurons [1] = experiment: Dendritic spine head width in hippocampal neurons; assay type: cell-based, rat; details: 10^−12 M; control 0.67 μm
Excerpt: Neurons were transfected with mRFP-β-actin on day in vitro 6 (DIV6) using LipofectAMINE™ 2000 (Invitrogen) according to the manufacturer's protocol. This protocol yielded the desired 3-5% transfection efficiency thus enabling the visualization of individual neurons. Higher efficiencies obscured the dendritic arbor of individual neurons. Expression of fluorescently tagged actin allowed clear visualization of dendritic spines, as dendritic spines are enriched in actin. On DIV7 the cells were treated with vehicle (H20) or peptides (as described in the text) added to media. […] Slides were dried for at least 20 hours at 4° C. and fluorescent images were obtained with Slidebook 4.2 Digital Microscopy Software driving an Olympus IX81 inverted confocal microscope with a 60× oil immersion lens, NA 1.4 and resolution 0.280 μm Dendritic spine density was measured on primary and secondary dendrites at a distance of at least 150 μm from the soma. Five 50 μm long segments of dendrite from at least 10 neurons per data point were analyzed for each data point reported. […] Dendrite length was determined using the National Institutes of Health's Image J 1.41o program (NIH, Bethesda, Md.) and the neurite tracing program Neuron J (Meijering, Jacob et al. 2004) Spines were manually counted. […]

hippocampal neurons [2] = experiment: Immunocytochemistry: correlation of spines to synaptic markers (VGLUT1, Synapsin, PSD-95); assay type: cell-based, rat; details: 5 days; for Number of spines/50 μm (PSD-95 staining experiment) / Number of spines/50 μm (Synapsin staining experiment) / Number of spines/50 μm (VGLUT1 staining experiment): 10^−12 M, N=25
Description: (§1) Transfected neurons were treated, fixed and stained. Briefly, cells were permeablized with 0.1% Triton X-100 detergent (Bio-Rad; Hercules, Calif.) for 10 minutes. An 8% bovine serum albumin (Intergen Company; Burlington, Mass.) in PBS was used to prevent non-specific binding for one hour at R.T.; Primary antibody incubations were at a 1:2500 dilution (see below) in 1% BSA in PBS at 4° C. overnight. Secondary antibody, 1:3000 Alexafluor 488 goat-anti-mouse (Invitrogen: Carlsbad, Calif.) was applied for two hours at room temperature. Coverslips were mounted with ProLong Gold anti-fade reagent (Invitrogen; Carlsbad, Calif.) and all washes were done with PBS. Imaging and analysis were performed as described above. For presynaptic excitatory transmission the VGLUT1 (Synaptic Systems, Goettingen, Germany) marker (Balschun, Moechars et al.) was employed and for general presynaptic transmission synapsinl (Synaptic Systems, Goettingen, Germany) (Ferreira and Rapoport 2002) was applied. A postsynaptic function was established by PSD-95 (Milipore, Billerica, Mass.) (El-Husseini, Schnell et al. 2000). In each instance the total number of spines was counted for the treatment groups, control, Nle1-AngIV and Dihexa, to ensure an active phenotype. The total number of actin enriched spines adjacent to VGLUT1 or Synapsin were counted and converted to a percentage as the percent correlation of treatment-induced spines to presynaptic markers is a strong indicator of ability to transmit excitatory signals.
as §1, with “fixed and stained as previously described in Chapter two. Briefly, cells” for “fixed and stained. Briefly, cells”, “enriched spines (red) adjacent to” for “enriched spines adjacent to”

Row | Compound | average spine head width (hippocampal neurons [1]) [μm] | Number of spines/50 μm (PSD-95 staining experiment) (hippocampal neurons [2]) [spines/50 μm] | Number of spines/50 μm (Synapsin staining experiment) (hippocampal neurons [2]) [spines/50 μm] | Number of spines/50 μm (VGLUT1 staining experiment) (hippocampal neurons [2]) [spines/50 μm] | correlation between presynaptic marker Synapsin and postsynaptic spines (hippocampal neurons [2]; HGF 10 ng/ml, vehicle 94%) [%]
1 | CCCCCC(=O)N[C@@H](Cc1ccc(O)cc1)C(=O)N[C@H](C(=O)NCCCCCC(N)=O)[C@@H](C)CC [Dihexa, N-hexanoic-Tyr-Ile-(6)-aminohexanoic amide] (Hexanoyl-Tyr-Ile-[Ahx]-NH2) | 0.80 | 43 | 37 | 44 | 
2 | CCCC[C@H](N)C(=O)N[C@@H](Cc1ccc(O)cc1)C(=O)N[C@H](C(=O)N[C@@H](Cc1c[nH]cn1)C(=O)N1CCC[C@H]1C(=O)N[C@@H](Cc1ccccc1)C(=O)O)[C@@H](C)CC [Nle1-AngIV, reference compound] (H-[Nle]YIHPF-OH; N-terminus and C-terminus assumed) | 0.87 | 36 | 31 | 39 | 
3 | HGF: recombinant hepatocyte growth factor (R&D Systems), ligand of c-Met |  |  |  |  | 98
